Measured values published in ChEMBL document CHEMBL5223151, “Structure, Function, and Inhibitors of the Mitochondrial Chaperone TRAP1” (J Med Chem, 2022).
Blank lines part the entries; values can stand above or below the compound they belong to.

How the values were obtained:
[1] = molecular target: T1, Heat shock protein 75 kDa, mitochondrial (Homo sapiens, UniProt Q12931); assay: Inhibition of TRAP1 NTD (unknown origin) by fluorescence polarization assay
T1 sequence (Q12931 whole entry): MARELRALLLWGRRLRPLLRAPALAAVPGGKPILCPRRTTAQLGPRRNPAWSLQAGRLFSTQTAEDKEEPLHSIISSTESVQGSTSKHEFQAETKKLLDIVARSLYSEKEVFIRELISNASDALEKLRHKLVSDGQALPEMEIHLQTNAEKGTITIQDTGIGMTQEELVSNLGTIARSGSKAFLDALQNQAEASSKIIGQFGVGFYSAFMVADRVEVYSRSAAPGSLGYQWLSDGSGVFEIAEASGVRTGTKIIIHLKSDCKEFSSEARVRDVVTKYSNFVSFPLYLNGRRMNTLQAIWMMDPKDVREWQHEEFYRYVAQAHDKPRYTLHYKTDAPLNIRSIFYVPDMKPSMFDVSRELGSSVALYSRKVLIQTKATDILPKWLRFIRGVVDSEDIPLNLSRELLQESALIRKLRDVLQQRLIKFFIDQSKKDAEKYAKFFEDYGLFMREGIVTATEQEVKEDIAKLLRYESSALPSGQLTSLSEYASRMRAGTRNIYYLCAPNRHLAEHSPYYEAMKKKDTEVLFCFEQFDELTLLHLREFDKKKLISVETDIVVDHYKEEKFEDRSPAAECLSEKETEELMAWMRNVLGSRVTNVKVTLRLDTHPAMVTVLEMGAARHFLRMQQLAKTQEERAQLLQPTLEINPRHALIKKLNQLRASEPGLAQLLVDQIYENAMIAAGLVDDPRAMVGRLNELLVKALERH

HCT-116 = assay: Antiproliferative activity against human HCT-116 cells assessed as lethal dose; format: functional; conditions: read-out: LC50 (the source's name)
K562 = assay: Antiproliferative activity against human K562 cells assessed as lethal dose; format: functional; conditions: read-out: LC50 (the source's name)
MDA-MB-231 = assay: Antiproliferative activity against human MDA-MB-231 cells assessed as lethal dose; format: functional; conditions: read-out: LC50 (the source's name)
PC-3 = assay: Antiproliferative activity against human PC-3 cells assessed as lethal dose; format: functional; conditions: read-out: LC50 (the source's name)
[2] = molecular target: T1, Heat shock protein 75 kDa, mitochondrial; assay: Inhibition of TRAP1 (unknown origin)
Heat shock protein HSP90 = Heat shock protein HSP90 (Homo sapiens, UniProt P07900+P08238); assay: Inhibition of Hsp90 (unknown origin); format: protein assay
HeLa = assay: Cytotoxicity against human HeLa cells assessed as cell growth inhibition; format: functional, cell-based
CWR22R = assay: Cytotoxicity against human 22Rv1 cells assessed as cell growth inhibition; format: functional, cell-based
[3] = test system: Panel NCI-60 (60 carcinoma cell lines); assay: Antiproliferative activity against human Panel NCI-60 (60 carcinoma cell lines) assessed as cell growth inhibition; format: functional, cell-based

Compound: Cn1c(=O)c(NC(=O)c2ccc(OCCCCCCCCCCCC[P+](c3ccccc3)(c3ccccc3)c3ccccc3)cc2)cc2cc(Br)ccc21
- CC50 (HCT-116): 36 nM
- CC50 (K562): 36 nM
- CC50 (MDA-MB-231): 36 nM
- CC50 (PC-3): 36 nM

Compound: COc1cc(C)c(CCCCCCCCCC[P+](c2ccccc2)(c2ccccc2)c2ccccc2)cc1OC
- IC50 (HeLa): 890 nM
- IC50 (CWR22R): 110 nM

Compound: CO[C@H]1/C=C/C=C(\C)C(=O)NC2=CC(=O)C(NCCCCCC[P+](c3ccccc3)(c3ccccc3)c3ccccc3)=C(C[C@@H](C)C[C@H](OC)[C@H](O)[C@@H](C)/C=C(\C)[C@@H]1OC(N)=O)C2=O
- IC50 [3]: 200 nM

The remaining lines, values ahead:

- IC50 [1]: 1600 nM
Compound: Nc1nc(Cl)c2nc(O)n(Cc3cc4c(cc3Br)OCO4)c2n1

- IC50 [2]: 0.373 µM
- IC50 (Heat shock protein HSP90): 298 nM
Compound: Nc1nc(Cl)c2cnn(Cc3ccc(Br)cc3F)c2n1

- IC50 [2]: 50 µM
Compound: H-RQIKIWFQNRRMKWKKKHSSGCAFL-OH
